Test results taken from patent publication US20010007872A1, “METHOD OF TREATING ACUTE, CHRONIC AND/OR NEUROPATHIC PAIN” (priority 1998, published 2001).

Tests used:
α1-adrengergic receptor = assay: Displacement of specific binding of [3H]prazosin from rat forebrain membranes; conditions: 0.2 nM [3H]prazosin, IC50 for displacement of specific binding
Procedure: (§1) Affinity for the NR2B subunit containing NMDA receptor is measured as the IC50 for displacement of specific binding of racemic [^3H]
Forebrains of adult male Sprague Dawley rats are homogenized in 20 volumes of ice cold 50 mM Tris/HCl buffer (pH 7.7). The homogenate is centrifuged at 50,000 X g for 10 min. at 4° C. The pellet is resuspended and centrifuged under identical conditions and the final pellet is resuspended in 80 volumes of 50 mM Tris/HCl (pH 8.0) at 4° C.
For binding assays, compounds under study are added at various concentrations to 500 μg membrane protein in 1 ml of 50 mM Tris/HCl buffer, followed by [^3H]prazosin (Amersham, specific activity 33 Ci/mmol, 0.2 nM final concentration). Following incubation for 30 min at 25° C. in a shaking water bath, samples are filtered onto Whatman GFB glass fiber filters using a MB48R Cell Harvester (Brandel Research and Development Laboratories, Gaithersburg Md.). Filters are washed three times for 10 s with ice cold Tris HCl buffer and the radioactivity trapped on the filter quantified by liquid scintillation spectroscopy. Nonspecific binding is determined in parallel incubations containing 100 nM prazosin. Specific binding is defined as total binding minus nonspecific binding.

[1] = biological target: T1, NR2B subunit containing NMDA receptor (Rattus norvegicus, UniProt P35439+Q00960); assay: Displacement of specific binding of racemic [3H](+)-(1S, 2S)-1-(4-hydroxy-phenyl)-2-(4-hydroxy-4-phenylpiperidino)-1-propanol ([3H]CP-101,606) from rat forebrain membranes; conditions: for Ratio [3H]Prazosin/[3H](+)-(1S, 2S)-1-(4-hydroxy-phenyl)-2-(4-hydroxy-4-phenylpiperidino)-1-propanol: selectivity for NR2B NMDA receptor over α1 adrenergic receptor, ratio of the two IC50, greater than three is considered selective
T1 construct: from rat forebrain membranes; from tissue; host or cells: forebrain membranes of adult male CD rats
T1 sequence (Q00960 27-1482, other chains not shown): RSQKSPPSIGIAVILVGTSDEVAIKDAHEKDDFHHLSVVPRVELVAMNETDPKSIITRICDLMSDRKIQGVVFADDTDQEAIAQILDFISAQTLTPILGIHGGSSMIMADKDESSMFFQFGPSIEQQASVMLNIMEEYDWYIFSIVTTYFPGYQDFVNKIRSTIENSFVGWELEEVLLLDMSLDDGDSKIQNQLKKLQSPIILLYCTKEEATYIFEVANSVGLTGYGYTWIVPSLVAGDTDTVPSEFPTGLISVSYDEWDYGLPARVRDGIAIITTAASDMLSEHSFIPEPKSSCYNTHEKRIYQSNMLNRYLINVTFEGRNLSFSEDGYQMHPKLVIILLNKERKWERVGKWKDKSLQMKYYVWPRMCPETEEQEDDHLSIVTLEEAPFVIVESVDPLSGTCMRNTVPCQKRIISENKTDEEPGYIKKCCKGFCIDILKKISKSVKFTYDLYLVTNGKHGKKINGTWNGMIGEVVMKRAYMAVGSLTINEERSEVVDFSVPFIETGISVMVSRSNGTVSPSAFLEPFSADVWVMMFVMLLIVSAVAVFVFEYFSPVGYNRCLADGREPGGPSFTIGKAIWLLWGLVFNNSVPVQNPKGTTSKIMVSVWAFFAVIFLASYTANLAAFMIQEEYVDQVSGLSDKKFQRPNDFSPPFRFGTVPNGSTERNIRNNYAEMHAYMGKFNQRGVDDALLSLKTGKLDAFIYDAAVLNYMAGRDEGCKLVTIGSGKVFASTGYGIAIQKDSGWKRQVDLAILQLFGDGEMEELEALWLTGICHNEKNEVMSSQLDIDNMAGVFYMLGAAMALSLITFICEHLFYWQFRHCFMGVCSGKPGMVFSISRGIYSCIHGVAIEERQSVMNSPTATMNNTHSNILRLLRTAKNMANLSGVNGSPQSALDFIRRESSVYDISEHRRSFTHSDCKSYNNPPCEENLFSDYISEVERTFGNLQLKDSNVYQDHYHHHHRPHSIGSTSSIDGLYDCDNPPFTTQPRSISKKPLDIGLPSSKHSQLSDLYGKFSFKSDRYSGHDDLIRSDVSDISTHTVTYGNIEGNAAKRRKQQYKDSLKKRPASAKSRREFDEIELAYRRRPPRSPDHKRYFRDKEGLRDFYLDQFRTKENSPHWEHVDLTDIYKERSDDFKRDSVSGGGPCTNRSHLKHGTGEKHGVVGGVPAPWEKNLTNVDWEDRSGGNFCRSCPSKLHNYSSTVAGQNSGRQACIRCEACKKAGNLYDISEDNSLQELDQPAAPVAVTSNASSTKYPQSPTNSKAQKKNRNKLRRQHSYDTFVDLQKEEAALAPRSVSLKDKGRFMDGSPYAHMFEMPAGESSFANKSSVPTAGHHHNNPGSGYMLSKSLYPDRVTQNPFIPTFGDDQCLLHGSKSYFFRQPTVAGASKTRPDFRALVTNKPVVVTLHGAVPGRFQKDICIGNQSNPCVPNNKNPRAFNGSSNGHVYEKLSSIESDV
Procedure: This affinity is assessed in a radioligand binding assay as described below.
The binding of racemic [^3H] […] Forebrains of adult male CD rats are homogenized in 0.32M sucrose at 4° C. The crude nuclear pellet is removed by centrifugation at 1,000×g for 10 min., and the supernatant centrifuged at 17,000×g for 25 min. The resulting pellet is resuspended in 5 mM Tris acetate pH 7.4 at 4° C. for 10 min. to lyse cellular particles and again centrifuged at 17,000×g. The resulting pellet is washed twice in Tris acetate, resuspended at 10 mg protein/ml and stored at −20° C. until use.
For binding assays, membranes are thawed, homogenized, and diluted to 0.5 mg protein/ml with 50 mM Tris HCl, pH 7.4. Compounds under study are added at various concentrations followed by racemic [^3H] […] Filters are washed for 10 s with ice cold Tris HCl buffer and the radioactivity trapped on the filter quantified by liquid scintillation spectroscopy. […] Specific binding is defined as total binding minus nonspecific binding.
as §1

melting point [°C] | SMILES | IC50 (α1-adrengergic receptor) [µM] | IC50 [1] [nM] | Ratio [3H]Prazosin/[3H](+)-(1S, 2S)-1-(4-hydroxy-phenyl)-2-(4-hydroxy-4-phenylpiperidino)-1-propanol [1]
 | Oc1ccc2c(c1)OC[C@@H](N1CCC(O)(c3ccc(F)cc3)CC1)[C@H]2O [(3R,4S)-3-[4-(4-fluorophenyl)-4-hydroxy-piperidin-1-yl] -chroman-4,7-diol] | > 10 | 18 ± 3 | ≧555
159 to 160 | Oc1ccc2c(c1)OCC(N1CCC(O)(c3ccc(F)cc3)CC1)[C@H]2O (stereo in doubt) |  |  | 
 | COc1cc([C@H](O)[C@H](C)N2CCC(O)(c3ccccc3)CC2)ccc1O [1S, 2S 1-(4-hydroxy-3-methoxyphenyl)-2-(4-hydroxy-4-phenyl-piperidin-1-yl)-propan-1-ol] | 8.1 | 94 | 86
 | Cc1cc([C@@H](OS(C)(=O)=O)[C@@H](C)N2CCC(O)(c3ccc(F)cc3)CC2)ccc1O (racemic) [(1R*, 2R*)-1-(4-hydroxy-3-methylphenyl)-2-(4-(4-fluorophenyl)-4-hydroxypiperidin-1-yl)-propan-1-ol-mesylate] | 10 |  | 714
 | C[C@@H]([C@@H](O)c1ccc(O)cc1)N1CCC(O)(c2ccccc2)CC1 [(1S,2S)-1-(4-hydroxyphenyl)-2-(4-hydroxy-4-phenylpiperidin-1-yl)-1-propanol] | 19.5 |  | 
 | OC(CN1CCC(Cc2ccc(F)cc2)CC1)c1ccc(Cl)cc1 (stereo not shown) [Eliprodil, reference compound] | 0.98 ± 0.22 | 450 ± 130 | 2.2
